Experimental data: patent US4767624A, “Decubital remedy” (priority 1985, dated 1988)
Like-named read-outs stand apart in the source and are kept apart here.

Legend:
Wistar rats = test: Subacute oral toxicity, rats; format: in vivo; conditions: oral, 40, 200 and 1,000 mg/kg/day, 5 weeks
Method: (§1) Ubidecarenone was continuously and orally administered to male and female Wistar rats at doses of 40, 200 and 1,000 mg/kg/day for 5 weeks and to male and female rabbits at doses of 60 and 600 mg/kg/day for 23 days.

[1] = cited from earlier work
[2] = test system: radiation dermatitis or radiation ulcers; conditions: previous trial use, publications (1) and (2); cited from earlier work
rabbits = test: Subacute oral toxicity, rabbits; format: in vivo; conditions: 60 and 600 mg/kg/day, 23 days
Method: as §1

[3] = Challenge (Adjuvante & patch method); format: in vivo; conditions: induction 5% acetone
Source text: Challenge Induction: 5% acetone
(Adjuvante & patch method)

Phototoxicity = format: in vivo; conditions: 1% and 10% in squalane
skin [4] = test: Primary cutaneous irritation; format: in vivo
[5] = Stability upon cutaneous administration; format: physicochemical
skin [6] = test: Cumulative irritation; format: in vivo; conditions: 1% in squalane
Blepharo-irritation = format: in vivo; conditions: 1% in squalane
skin [7] = test: Patch test; format: in vivo; conditions: 1% in squalane
[8] = Optical challenge (Adjuvante & strip method); format: in vivo; conditions: induction 10% acetone
Source text: |(Adjuvante & strip method)

heart muscle = conditions: ischemic state; cited from earlier work

## COC1=C(OC)C(=O)C(C/C=C(\C)CC/C=C(\C)CC/C=C(\C)CC/C=C(\C)CC/C=C(\C)CC/C=C(\C)CC/C=C(\C)CC/C=C(\C)CC/C=C(\C)CCC=C(C)C)=C(C)C1=O [Ubidecarenone]
Wistar rats
  difference from controls in general conditions, blood test, urine test and morphological observation: Neither rats nor rabbits developed any difference compared with their respective controls
[1]; methanol
  solubility: scarcely soluble
[1]; oil
  solubility: oil-soluble
[1]; water
  solubility: scarcely soluble
[2]
  effectiveness in radiation dermatitis or radiation ulcers: superb effectiveness
rabbits
  difference from controls in general conditions, blood test, urine test and morphological observation: Neither rats nor rabbits developed any difference compared with their respective controls
[3]; 1% in acetone
  Challenge: 0/10
[3]; 5% and 1% in acetone
  Challenge, conclusion: low challenge
[3]; 5% in acetone
  Challenge: 0/10
Phototoxicity
  Phototoxicity, conclusion: low phototoxicity
Skin [4]; 1% in squalane
  Primary cutaneous irritation: 0.1
  Primary cutaneous irritation, conclusion: low skin irritation
Skin [4]; cutaneous administration, summary of Table 1
  irritation to the skin: low irritation to the skin
[5]
  stability upon cutaneous administration: good stability
Skin [6]
  Cumulative irritation: 0.3
  Cumulative irritation, conclusion: low skin irritation
Blepharo-irritation
  Blepharo-irritation, conclusion: low blepharo-irritation
Skin [7]
  Patch test: 0/54
  Patch test, conclusion: low skin irritation
[8]; 0.5% in acetone
  Optical challenge: 0/5
[8]; 0.5-10% in acetone
  Optical challenge, conclusion: low optical challenge
[8]; 1% in acetone
  Optical challenge: 0/5
[8]; 2% in acetone
  Optical challenge: 0/5
[8]; 5% in acetone
  Optical challenge: 0/5
[8]; 10% in acetone
  Optical challenge: 0/5
Heart muscle
  damage of ischemic cardiac muscular tissue: reduce the damage
  percent oxygen utilization in heart muscle: improve the percent oxygen utilization in heart muscle
